Measured values taken from ChEMBL document CHEMBL4334520, “Nonadride and Spirocyclic Anhydride Derivatives from the Plant Endophytic Fungus Talaromyces purpurogenus” (J Nat Prod, 2019).

Key:
[1] = target: Xanthine dehydrogenase/oxidase (Homo sapiens, UniProt P47989); assay: Inhibition of xanthine oxidase (unknown origin) at 10 uM using xanthine as substrate incubated for 15 mins relative to control; conditions: 0.25 h
RAW264.7 [2] = assay: Anti-inflammatory activity in mouse RAW264.7 cells assessed as inhibition of LPS-induced NO production pretreated with compounds followed by LPS stimulation incubated for 24 hrs by Griess assay; type: functional, cell-based
RAW264.7 [3] = assay: Growth inhibition of mouse RAW264.7 cells relative to control; type: cell-based
[4] = target: T1, Tyrosine-protein phosphatase non-receptor type 1 (Homo sapiens) (UniProt P18031); assay: Inhibition of recombinant human PTP1B expressed in Escherichia coli BL21 at 10 uM using […] as substrate […] for 5 mins followed by substrate addition measured after 10 mins relative to control
T1 sequence (whole entry): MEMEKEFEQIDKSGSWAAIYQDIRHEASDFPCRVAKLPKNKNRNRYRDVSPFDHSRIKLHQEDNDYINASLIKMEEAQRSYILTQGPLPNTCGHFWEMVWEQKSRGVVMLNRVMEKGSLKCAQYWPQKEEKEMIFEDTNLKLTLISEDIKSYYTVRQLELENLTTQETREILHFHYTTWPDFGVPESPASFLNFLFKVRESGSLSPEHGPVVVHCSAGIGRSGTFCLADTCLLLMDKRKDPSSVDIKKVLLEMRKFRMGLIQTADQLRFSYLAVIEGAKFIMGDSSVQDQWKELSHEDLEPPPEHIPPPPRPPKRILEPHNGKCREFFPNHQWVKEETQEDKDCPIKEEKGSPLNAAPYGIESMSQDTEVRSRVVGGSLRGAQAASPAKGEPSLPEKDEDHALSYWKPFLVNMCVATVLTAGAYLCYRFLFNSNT

Xanthine dehydrogenase/oxidase, sequence (P47989 whole entry): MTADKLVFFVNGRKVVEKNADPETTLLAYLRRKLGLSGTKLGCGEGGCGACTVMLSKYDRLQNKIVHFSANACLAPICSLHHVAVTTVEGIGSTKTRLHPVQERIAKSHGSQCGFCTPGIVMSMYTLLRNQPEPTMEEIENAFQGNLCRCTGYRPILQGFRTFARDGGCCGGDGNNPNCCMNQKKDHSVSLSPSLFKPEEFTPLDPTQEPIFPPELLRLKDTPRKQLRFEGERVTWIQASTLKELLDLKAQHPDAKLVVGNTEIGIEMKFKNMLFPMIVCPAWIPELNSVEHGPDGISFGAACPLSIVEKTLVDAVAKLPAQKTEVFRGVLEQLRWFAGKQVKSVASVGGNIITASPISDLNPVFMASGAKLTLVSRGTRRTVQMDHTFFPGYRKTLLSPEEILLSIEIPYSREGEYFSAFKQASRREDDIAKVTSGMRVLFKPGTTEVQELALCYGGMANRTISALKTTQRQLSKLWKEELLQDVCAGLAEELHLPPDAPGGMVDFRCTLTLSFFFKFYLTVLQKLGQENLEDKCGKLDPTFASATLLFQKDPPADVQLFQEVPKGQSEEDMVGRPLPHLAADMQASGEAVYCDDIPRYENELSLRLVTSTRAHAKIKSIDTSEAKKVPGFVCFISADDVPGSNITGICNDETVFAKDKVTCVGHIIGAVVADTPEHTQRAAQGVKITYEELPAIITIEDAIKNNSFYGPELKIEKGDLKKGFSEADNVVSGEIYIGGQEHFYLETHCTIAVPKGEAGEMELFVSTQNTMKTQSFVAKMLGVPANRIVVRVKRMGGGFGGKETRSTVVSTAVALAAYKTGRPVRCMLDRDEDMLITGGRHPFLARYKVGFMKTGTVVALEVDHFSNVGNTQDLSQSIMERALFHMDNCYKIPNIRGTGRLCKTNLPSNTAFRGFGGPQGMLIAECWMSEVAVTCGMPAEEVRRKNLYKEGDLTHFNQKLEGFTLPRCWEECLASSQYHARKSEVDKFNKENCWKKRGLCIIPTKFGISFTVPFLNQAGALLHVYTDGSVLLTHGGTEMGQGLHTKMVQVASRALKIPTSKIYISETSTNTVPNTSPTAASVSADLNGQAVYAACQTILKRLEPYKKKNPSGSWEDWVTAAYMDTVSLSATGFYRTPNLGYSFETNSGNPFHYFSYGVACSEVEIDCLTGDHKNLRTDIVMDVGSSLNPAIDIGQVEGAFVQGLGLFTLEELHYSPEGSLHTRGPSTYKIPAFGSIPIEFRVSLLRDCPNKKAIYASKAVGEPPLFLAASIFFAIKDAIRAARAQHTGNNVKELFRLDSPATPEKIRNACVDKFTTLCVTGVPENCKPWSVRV

## CCCCCC[C@H](O)[C@@H]1/C(C(=O)O)=C(/C(=O)O)C[C@H]([C@@H](O)[C@H](O)CCCC)CC2=C(C(=O)OC2=O)[C@H]1O
[1]
  inhibition at 10 µM: 67%

## CCCCCC[C@H](O)[C@@H]1/C(C(=O)O)=C(/C(=O)O)C[C@H]([C@@H](O)[C@H]2CC=CC(=O)O2)CC2=C(C(=O)OC2=O)[C@H]1O
RAW264.7 [2]
  IC50: 1900 nM
RAW264.7 [3]
  growth inhibition (GI): -14.5%

## CCCCCCC[C@@H](CC1=C(/C=C/CCC/C=C\CO)C(=O)OC1=O)C1=C(C)C(=O)OC1=O
[4]
  inhibition: 76%
